Data on 13 compounds can be found in patent publication US20240190880A1 (THE REGENTS OF THE UNIVERSITY OF MICHIGAN, priority 2021, published 2024).

Each structure is given as a SMILES string.

The target in the test is T1, ER (Homo sapiens, UniProt P03372).
T1 construct: host or cells: T47D and MCF7 human breast cancer cells
T1 sequence (P03372 1-595): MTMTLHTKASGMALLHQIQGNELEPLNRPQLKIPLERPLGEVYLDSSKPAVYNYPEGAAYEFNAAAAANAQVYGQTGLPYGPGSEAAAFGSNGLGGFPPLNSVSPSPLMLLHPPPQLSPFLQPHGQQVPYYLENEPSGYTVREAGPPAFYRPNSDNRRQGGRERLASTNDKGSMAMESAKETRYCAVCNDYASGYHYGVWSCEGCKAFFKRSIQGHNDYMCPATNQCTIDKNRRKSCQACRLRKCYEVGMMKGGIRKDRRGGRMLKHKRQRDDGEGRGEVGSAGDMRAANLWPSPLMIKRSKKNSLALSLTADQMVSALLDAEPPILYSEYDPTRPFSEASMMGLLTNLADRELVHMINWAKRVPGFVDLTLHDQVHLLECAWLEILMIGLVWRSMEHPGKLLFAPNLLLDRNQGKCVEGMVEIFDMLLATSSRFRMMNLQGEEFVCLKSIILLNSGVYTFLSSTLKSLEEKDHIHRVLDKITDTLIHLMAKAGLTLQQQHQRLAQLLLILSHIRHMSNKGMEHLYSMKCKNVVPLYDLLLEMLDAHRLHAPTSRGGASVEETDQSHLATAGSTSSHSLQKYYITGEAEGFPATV
As to the kind of experiment: ER degradation activity, in-cell western blot analysis in T47D cells. The format is cell-based. The conditions noted are these: 16 hours, Table A does not say which cell line (T47D or MCF7), read-out: Potency (DC50). In short, it runs like this:
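T47D cells grown in DMEM with 10% FBS were treated with compounds for 16 hours at 0.5% DMSO final. ER was detected by in-cell western using 680/800 near-infrared secondary antibodies. Residual ER is given as percent of untreated and DMSO-treated wells set to 100%.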
For orientation: DC50 means the concentration at which degradation of the target reaches its halfway point. As to `C[C@@H]1Cc2c([nH]c3ccccc23)[C@@H](c2c(F)cc(C3CCC(CN4CCC(N5Cc6cc7c(cc6C5)C(=O)N(C5CCC(=O)NC5=O)C7=O)CC4)CC3)cc2F)N1CC(F)F` (stereo partly drawn) [E 282, 6-(1-((4-(4-((1R,3R)-2-(2,2-difluoroethyl)-3-methyl-2,3,4,9-tetrahydro-1H-pyrido[3,4-b]indol-1-yl)-3,5-difluorophenyl)cyclohexyl)methyl)piperidin-4-yl)-2-(2,6-dioxopiperidin-3-yl)-6,7-dihydropyrrolo[3,4-f]isoindole-1,3(2H,5H)-dione], the DC50 was more than 100 nM. With `O=C1CCC(N2C(=O)c3cc4c(cc3C2=O)CN(CC(=O)N2CC3(CCN(c5ccc([C@@H]6c7ccc(O)cc7CC[C@@H]6c6ccc(F)cc6)cc5)CC3)C2)CC4)C(=O)N1` (mixture of isomers) [E 164, rac-2-(2,6-dioxopiperidin-3-yl)-6-(2-(7-(4-((1R,2S)-2-(4-fluorophenyl)-6-hydroxy-1,2,3,4-tetrahydronaphthalen-1-yl)phenyl)-2,7-diazaspiro[3.5]nonan-2-yl)-2-oxoethyl)-5,6,7,8-tetrahydro-1H-pyrrolo[3,4-g]isoquinoline-1,3(2H)-dione] the figure was 10 to 100 nM. With `O=C1CCC(N2C(=O)c3cc4c(cc3C2=O)CN(CC(=O)N2CC3(CCN(c5ccc([C@@H]6c7ccc(O)cc7CC[C@@H]6c6ccccc6)cc5F)CC3)C2)C4)C(=O)N1` (mixture of isomers) [E 173, Rac-2-(2,6-dioxopiperidin-3-yl)-6-(2-(7-(2-fluoro-4-((1R,2S)-6-hydroxy-2-phenyl-1,2,3,4-tetrahydronaphthalen-1-yl)phenyl)-2,7-diazaspiro[3.5]nonan-2-yl)-2-oxoethyl)-6,7-dihydropyrrolo[3,4-f]isoindole-1,3(2H,5H)-dione] the figure was more than 100 nM. Under `C[C@@H]1Cc2c([nH]c3ccccc23)[C@@H](c2c(F)cc(N3CCC(CN4CCC(N5Cc6cc7c(cc6C5)C(=O)N(C5CCC(=O)NC5=O)C7=O)CC4)CC3)cc2F)N1CC(F)F` (stereo partly drawn) [E 51, 6-(1-((1-(4-((1R,3R)-2-(2,2-difluoroethyl)-3-methyl-2,3,4,9-tetrahydro-1H-pyrido[3,4-b]indol-1-yl)-3,5-difluorophenyl)piperidin-4-yl)methyl)piperidin-4-yl)-2-(2,6-dioxopiperidin-3-yl)-6,7-dihydropyrrolo[3,4-f]isoindole-1,3(2H,5H)-dione] stands 10 to 100 nM; under `C[C@@H]1Cc2cc(O)ccc2[C@@H](c2c(F)cc(N3CCC4(CC3)CN(CC(=O)N3Cc5cc6c(cc5C3)C(=O)N(C3CCC(=O)NC3=O)C6)C4)cc2F)N1CC(F)F` (stereo partly shown) [E 39], less than 10 nM; under `C[C@@H]1Cc2c([nH]c3ccccc23)[C@@H](c2c(F)cc(N3CCC(C(=O)N4CCC(CN5Cc6cc7c(cc6C5)C(=O)N(C5CCC(=O)NC5=O)C7=O)CC4)CC3)cc2F)N1CC(F)F` (stereo partly drawn) [E 113, 6-((1-(1-(4-((1R,3R)-2-(2,2-difluoroethyl)-3-methyl-2,3,4,9-tetrahydro-1H-pyrido[3,4-b]indol-1-yl)-3,5-difluorophenyl)piperidine-4-carbonyl)piperidin-4-yl)methyl)-2-(2,6-dioxopiperidin-3-yl)-6,7-dihydropyrrolo[3,4-f]isoindole-1,3(2H,5H)-dione], 10 to 100 nM.

On to `O=C1CCC(N2C(=O)c3cc4c(cc3C2=O)CN(C(=O)CN2CCC3(CC2)CC(Oc2ccc([C@@H]5c6ccc(O)cc6CC[C@@H]5c5ccccc5)cc2)C3)C4)C(=O)N1` (stereo partly drawn) [E 222, 2-(2,6-dioxopiperidin-3-yl)-6-(2-(2-(4-((1R,2S)-6-hydroxy-2-phenyl-1,2,3,4-tetrahydronaphthalen-1-yl)phenoxy)-7-azaspiro[3.5]nonan-7-yl)acetyl)-6,7-dihydropyrrolo[3,4-f]isoindole-1,3(2H,5H)-dione], for which the DC50 was more than 100 nM. As to `C[C@@H]1Cc2cc(O)ccc2[C@@H](c2c(F)cc(N3CCC4(CN(C(=O)CN5Cc6cc7c(cc6C5)C(=O)N(C5CCC(=O)NC5=O)C7)C4)C3)cc2F)N1CC(F)F` (stereo partly drawn) [E 37, 3-(6-(2-(6-(4-((1S,3R)-2-(2,2-difluoroethyl)-6-hydroxy-3-methyl-1,2,3,4-tetrahydroisoquinolin-1-yl)-3,5-difluorophenyl)-2,6-diazaspiro[3.4]octan-2-yl)-2-oxoethyl)-1-oxo-3,5,6,7-tetrahydropyrrolo[3,4-f]isoindol-2(1H)-yl)piperidine-2,6-dione], the DC50 was less than 10 nM. With `O=C1CCC(N2Cc3cc4c(cc3C2=O)CN(C(=O)C2CCN(CC3CCN(c5ccc([C@@H]6c7ccc(O)cc7CC[C@@H]6c6ccccc6)cc5)CC3)CC2)C4)C(=O)N1` (stereo partly drawn) [E 284, 3-(6-(1-((1-(4-((1R,2S)-6-hydroxy-2-phenyl-1,2,3,4-tetrahydronaphthalen-1-yl)phenyl)piperidin-4-yl)methyl)piperidine-4-carbonyl)-1-oxo-3,5,6,7-tetrahydropyrrolo[3,4-f]isoindol-2(1H)-yl)piperidine-2,6-dione], the half-maximal degradation concentration (DC50) is more than 100 nM. Under `C[C@H]1Cc2c([nH]c3ccccc23)[C@H](c2c(F)cc(N3CC4(CCN(C(=O)CN5Cc6cc7c(cc6C5)C(=O)N(C5CCC(=O)NC5=O)C7=O)CC4)C3)cc2F)N1CC(F)F` (stereo in doubt) [E 84, 6-(2-(2-(4-((1S,3S)-2-(2,2-difluoroethyl)-3-methyl-2,3,4,9-tetrahydro-1H-pyrido[3,4-b]indol-1-yl)-3,5-difluorophenyl)-2,7-diazaspiro[3.5]nonan-7-yl)-2-oxoethyl)-2-(2,6-dioxopiperidin-3-yl)-6,7-dihydropyrrolo[3,4-f]isoindole-1,3(2H,5H)-dione] stands less than 10 nM. `C[C@@H]1Cc2c([nH]c3ccccc23)[C@@H](c2c(F)cc(N3CCCC4(CCN(C(=O)CN5Cc6cc7c(cc6C5)C(=O)N(C5CCC(=O)NC5=O)C7=O)C4)C3)cc2F)N1CC(F)F` (stereo partly drawn) [E 78, 6-(2-(7-(4-((1R,3R)-2-(2,2-difluoroethyl)-3-methyl-2,3,4,9-tetrahydro-1H-pyrido[3,4-b]indol-1-yl)-3,5-difluorophenyl)-2,7-diazaspiro[4.5]decan-2-yl)-2-oxoethyl)-2-(2,6-dioxopiperidin-3-yl)-6,7-dihydropyrrolo[3,4-f]isoindole-1,3(2H,5H)-dione]: the half-maximal degradation concentration (DC50) is more than 100 nM. With `C[C@H]1CC2(CCN(c3ccc([C@@H]4c5ccc(O)cc5CC[C@@H]4c4ccccc4)cc3)CC2)CN1C(=O)CN1Cc2cc3c(cc2C1)C(=O)N(C1CCC(=O)NC1=O)C3=O` (mixture of isomers) [E 142, Rac-2-(2,6-dioxopiperidin-3-yl)-6-(2-((S)-8-(4-((1R,2S)-6-hydroxy-2-phenyl-1,2,3,4-tetrahydronaphthalen-1-yl)phenyl)-3-methyl-2,8-diazaspiro[4.5]decan-2-yl)-2-oxoethyl)-6,7-dihydropyrrolo[3,4-f]isoindole-1,3(2H,5H)-dione] the figure was 10 to 100 nM; with `C[C@@H]1Cc2c([nH]c3ccccc23)[C@@H](c2c(F)cc(N3CC4(CC(C(=O)N5CCC(CN6Cc7cc8c(cc7C6)C(=O)N(C6CCC(=O)NC6=O)C8=O)CC5)C4)C3)cc2F)N1CC(F)F` (stereo partly drawn) [E 115, 6-((1-(2-(4-((1R,3R)-2-(2,2-difluoroethyl)-3-methyl-2,3,4,9-tetrahydro-1H-pyrido[3,4-b]indol-1-yl)-3,5-difluorophenyl)-2-azaspiro[3.3]heptane-6-carbonyl)piperidin-4-yl)methyl)-2-(2,6-dioxopiperidin-3-yl)-6,7-dihydropyrrolo[3,4-f]isoindole-1,3(2H,5H)-dione], less than 10 nM.
